How the values were obtained:
HCT116 cells = assay: Genome-wide CRISPR/Cas9 knockout screen in HCT116 cells; format: cell-based, human; conditions: 1 μM pulsed intermittently over 21 days
Description: To better understand how inhibition of NVL by MM017 leads to cell death, we performed a genome wide pooled CRISPR/Cas9 knockout screen in HCT116 cells using a library of guide RNAs targeting 19,114 genes. Cells were pulsed intermittently with vehicle or MM017 over 21 days, at which point MM017 treated cells had undergone 9.79 fewer population doublings. Massively parallel sequencing of PCR products amplified from genomic DNA was used to determine relative levels of sgRNA sequences to infer the relative impact of each gene on compound sensitivity. […]
HCT116 cells stably expressing Cas9 were generated by infecting cells with lentiCas9-Blast (Addgene #52962) and selection with 10 μg/mL blasticidin. […] Viable cells were counted at each passage and collected after 21 days. Genomic DNA was extracted using Blood & Cell Culture DNA Maxi kit (QIAGEN #13362), and concentrations were determined using Quant-iT PicoGreen dsDNA assay kits (Invitrogen #P7589). sgRNAs were PCR-amplified using 28 cycles from approximately 650 μg genomic DNA (10 μg DNA/100 μL reaction) using Ex Taq DNA Polymerase (TaKaRa #RR001B), 8 staggered P5 primers, and 1 unique P7 index primer per sample as described in the “Protocol PCR of sgRNAs from gDNA for Illumina sequencing” published by the Broad Institute (51). […] The mapping reads were counted for each sgRNA using SAMtools (v1.9) with the options “-F 2308-q 1”. […]

cleaved caspase-3 = assay: Cleaved caspase-3 (apoptosis), HCT116 control and p53 KO cells; format: cell-based, human
Description: The upregulation of p53 and its effector p21 can arrest cell growth or induce cell death through apoptosis. […] Next, we addressed whether cell death was mediated by an apoptotic pathway by assaying for cleaved caspase-3, a bona fide marker of apoptosis.

[1] = test system: p53 and p21 in HCT116 NVL^WT tumors; assay: Pharmacodynamic study: p53 and p21 in HCT116 NVL^WT xenograft tumors; format: in vivo, mouse; conditions: 35 mg/kg IP
Description: Plasma exposure was dose-dependent up to 35 mg/kg (IP injection) reaching a maximum concentration at 17.86 μM. These levels exceed the anti-proliferative IC99 of MM927 in cells expressing either human or mouse NVL. In a subsequent pharmacodynamic (PD) study, we asked if we could assess on-target NVL inhibition via a subsequent p53 and/or p21 induction in tumor xenografts in mice treated with MM927. We implanted HCT116 NVL^WT and NVL^R403W cells subcutaneously on either flank of the mice and evaluated the levels of p53 and p21 in either tumor at various time points after IP administration of 35 mg/kg of MM927.
Pharmacodynamic study: Five million parental HCT116 cells or HCT116 NVL^R403W in a volume of 0.1 mL were implanted using a subcutaneous injection in the left and right side of four-to-eight-week-old male and female NSG mice, respectively. Tumor volumes were measured every 2 to 4 days with calipers. When the tumor diameter reached 0.5 cm in diameter, mice were dosed with 35 mg/kg MM927 or vehicle formulated as 10% DMSO/10% Kolliphor EL/10% Solutal/70% D5W and administered via the intraperitoneal route. At each time point (0, 3, 6, 12, 24 hours post dose), tumors were harvested and flash frozen for Western blot analysis for p53 and p21 as described.

mouse NVL = molecular target: T1, mouse NVL (Mus musculus, UniProt Q9DBY8); assay: Viability of NVL^AID/AID cells relying on ectopic mouse NVL (Ph-IAA); format: cell-based; conditions: endogenous NVL degraded with Ph-IAA
T1 construct: expressed in transfected cells; host or cells: HCT116 NVL^AID/AID cells (human cells, viral infection)
T1 sequence (Q9DBY8 whole entry): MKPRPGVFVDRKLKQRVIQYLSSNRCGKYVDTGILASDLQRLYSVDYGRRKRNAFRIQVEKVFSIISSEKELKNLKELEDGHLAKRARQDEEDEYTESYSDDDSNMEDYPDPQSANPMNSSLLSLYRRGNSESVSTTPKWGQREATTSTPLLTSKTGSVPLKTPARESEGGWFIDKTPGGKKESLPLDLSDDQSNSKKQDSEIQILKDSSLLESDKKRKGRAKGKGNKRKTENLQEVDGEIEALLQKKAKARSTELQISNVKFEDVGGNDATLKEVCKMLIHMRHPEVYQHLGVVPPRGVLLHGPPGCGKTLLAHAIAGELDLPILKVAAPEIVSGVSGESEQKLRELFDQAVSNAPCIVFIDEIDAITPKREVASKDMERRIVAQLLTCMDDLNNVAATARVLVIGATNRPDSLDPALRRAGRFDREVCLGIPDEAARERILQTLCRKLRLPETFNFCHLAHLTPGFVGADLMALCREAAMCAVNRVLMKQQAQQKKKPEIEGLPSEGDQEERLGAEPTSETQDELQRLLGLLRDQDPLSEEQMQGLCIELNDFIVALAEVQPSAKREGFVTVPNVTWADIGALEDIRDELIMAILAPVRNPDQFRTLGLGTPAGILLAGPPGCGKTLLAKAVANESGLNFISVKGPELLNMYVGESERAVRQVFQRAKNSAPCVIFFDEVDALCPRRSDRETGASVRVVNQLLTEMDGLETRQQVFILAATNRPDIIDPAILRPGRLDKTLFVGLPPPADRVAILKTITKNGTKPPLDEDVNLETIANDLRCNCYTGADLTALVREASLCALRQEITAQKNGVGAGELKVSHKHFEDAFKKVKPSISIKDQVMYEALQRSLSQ
Description: Next, we investigated whether inhibitors of NVL could inhibit the growth of cell line derived xenografts tumors in mice, and whether systemic inhibition of NVL leads to specific toxicities. […] To test the potency of MM927 against mouse NVL within the same cell type, we ectopically expressed either human or mouse NVL in NVL^AID/AID cells. Treatment with Ph-IAA degrades the endogenous protein so that the cells must rely solely on ectopically expressed NVL. In the mock infected cells, degrading NVL^AID/AID by the addition of Ph-IAA reduced cell viability as expected, and the viability was completely rescued by expression of either ectopic mouse or human NVL.

[2] = Toxicity read-outs in efficacy study (body weight, blood counts, blood chemistry); format: in vivo; conditions: 35 mg/kg IP twice a day for 21 days
Description: Having established the kinetics of MM927 mediated NVL inhibition in xenograft tumors, we administered 35 mg/kg MM927 IP twice a day for 21 days to mice harboring tumors derived from either HCT116 NVL wild type or NVL^R403W cells. […] Taken together, we concluded that the potent, and bioavailable analog MM927 reduces tumor growth in mouse xenografts by inhibiting NVL without toxicity.
Efficacy study: Five million parental HCT116 cells or HCT116 NVL^R403W in a volume of 0.1 mL were implanted in the right flank. Tumor volumes were measured every 2 to 4 days with calipers. Volume is calculated as [(L*W^2)*3.14]/6. When volumes reached ˜110 mm^3, treatment was started with 35 mg/kg MM927 or vehicle control (0.2 mL/mouse) twice a day for 21 days. Mice were euthanized at the end of the 21-day treatment period or when any tumor reached 2 cm in its largest diameter, in agreement with the approved animal protocol. At the end of treatment, blood and tumor tissue were collected for pharmacokinetic analysis, measurement of complete blood counts, and blood chemistry measurements as described. Serum alanine transaminase and blood urea nitrogen were analyzed using VITROS MicroSlide technology.

Row | SMILES | fewer population doublings than vehicle (HCT116 cells) | cleaved caspase-3 (cleaved caspase-3) | p53 and p21 time course in NVL^WT tumor [1] | p53 protein levels in NVL^WT tumor [1] | IC50 (mouse NVL) [µM] | body weight, red and white blood cells, hemoglobin, platelets, alanine transaminase, blood urea nitrogen versus vehicle [2] | overt toxicity [2]
1 | COCCN1C(=O)c2ccccc2Sc2cc(NC(=O)c3ccoc3)ccc21 [MM017] | 9.79 | substantially reduced in p53 KO cells | – | – | – | – | –
2 | CC#CCN1C(=O)c2ccc(F)cc2Sc2cc(NC(=O)c3ccc4oc(=O)n(C)c4c3)ccc21 [MM927, N-(10-(But-2-yn-1-yl)-3-fluoro-11-oxo-10,11-dihydrodibenzo[b,f][1,4]thiazepin-7-yl)-3-methyl-2-oxo-2,3-dihydrobenzo[d]oxazole-5-carboxamide] | – | – | remained elevated at 12 hours and decreased to basal levels by 24 hours | increased 3 hours after injection | 0.207 | no significant difference | no signs of overt toxicity

Reference: patent US20260097047A1, “Small molecule inhibitors of the ribosome biogenesis factor NVL2” (Board of Regents, The University of Texas System, priority 2023, published 2026)
